In ChEMBL document CHEMBL1153216, “Parallel synthesis of N-biaryl quinolone carboxylic acids as selective M(1) positive allosteric modulators” (Bioorg Med Chem Lett, 2010):

Columns and labels:
[1] = molecular target: T1, Muscarinic acetylcholine receptor M1 (Homo sapiens) (UniProt P11229); assay: Allosteric modulation of human muscarinic M1 receptor expressed in CHO cells assessed as effect on acetylcholine-induced calcium mobilization by FLIPR assay; assay type: functional, cell-based
T1 sequence (whole entry): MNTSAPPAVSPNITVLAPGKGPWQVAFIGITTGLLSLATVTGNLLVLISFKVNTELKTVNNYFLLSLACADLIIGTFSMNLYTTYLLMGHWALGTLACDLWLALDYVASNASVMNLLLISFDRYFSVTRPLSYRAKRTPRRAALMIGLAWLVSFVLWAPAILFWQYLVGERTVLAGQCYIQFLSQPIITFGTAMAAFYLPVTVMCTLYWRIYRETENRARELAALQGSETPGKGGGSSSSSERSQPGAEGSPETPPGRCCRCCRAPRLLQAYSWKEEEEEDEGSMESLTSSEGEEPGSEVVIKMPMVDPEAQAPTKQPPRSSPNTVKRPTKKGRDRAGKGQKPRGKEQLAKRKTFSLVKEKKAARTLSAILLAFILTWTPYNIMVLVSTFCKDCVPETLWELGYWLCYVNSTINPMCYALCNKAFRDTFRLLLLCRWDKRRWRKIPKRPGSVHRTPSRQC

[2] = Plasma protein binding in human serum by equilibrium dialysis method
[3] = Plasma protein binding in rat serum by equilibrium dialysis method
[4] = Drug level in rat cerebrospinal fluid at 10 mg/kg, po after 1 hr

In the case of `O=C(O)c1cn(Cc2ccc(-c3ccccc3)cc2)c2c(F)ccc(F)c2c1=O`, the IP [1] is reported as 270 nM.

Work on `O=C(O)c1cn(Cc2c(F)cccc2F)c2c(F)ccc(F)c2c1=O` yielded an IP [1] of 610 nM.

Compound `O=C(O)c1cn(Cc2ccc(-c3cn[nH]c3)cc2F)c2ccccc2c1=O` has an IP [1] of 56 nM.

`COc1ccc(Cn2cc(C(=O)O)c(=O)c3cccc(F)c32)cc1` showed an IP [1] of 1100 nM.

Compound `O=C(NCCO)c1cccc(-c2ccc(Cn3cc(C(=O)O)c(=O)c4cccc(F)c43)cc2)c1` has an IP [1] of 99 nM.

With `O=C(O)c1cn(Cc2cccc(C(F)(F)F)c2)c2ccccc2c1=O` the IP [1] was 7200 nM.

With `O=C(O)c1cn(Cc2ccc(Br)cc2F)c2cccc(F)c2c1=O` the IP [1] was 1100 nM.

`N#Cc1ccccc1-c1ccc(Cn2cc(C(=O)O)c(=O)c3cccc(F)c32)cc1` gave an IP [1] of 540 nM.

`O=C(O)c1cn(C2(c3ccccc3)CC2)c2ccccc2c1=O` gave an IP [1] of 13000 nM.

Compound `Cn1cc(-c2ccc(Cn3cc(C(=O)O)c(=O)c4ccccc43)c(F)c2)cn1` has an IP [1] of 37 nM.

For `O=C(O)c1cn(CCc2ccccc2)c2c(F)cccc2c1=O`, the IP [1] was 24000 nM.

For `NC(=O)c1cccc(Cn2cc(C(=O)O)c(=O)c3cccc(F)c32)c1`, the IP [1] was 3400 nM.

In the case of `O=C(O)c1cn(Cc2ccc(-c3cncnc3)cc2)c2c(F)cccc2c1=O`, the IP [1] is reported as 830 nM.

`N#Cc1ccccc1-c1ccc(Cn2cc(C(=O)O)c(=O)c3c(F)cccc32)cc1` showed an IP [1] of 400 nM.

Work on `COc1ccc(-c2ccc(Cn3cc(C(=O)O)c(=O)c4cccc(F)c43)cc2)cn1` yielded an IP [1] of 63 nM.

In the case of `O=C(O)c1cn(Cc2ccc(-c3ccccc3)cc2)c2c(F)cccc2c1=O`, the IP [1] is reported as 380 nM.

Work on `COc1cccc(Cn2cc(C(=O)O)c(=O)c3c(F)ccc(F)c32)c1` yielded an IP [1] of 4200 nM.

In the case of `CN(C)c1cc(-c2ccc(Cn3cc(C(=O)O)c(=O)c4cccc(F)c43)cc2)ccn1`, the IP [1] is reported as 45 nM.

In the case of `O=C(O)c1cn(Cc2ccc(C(F)(F)F)cc2)c2cccc(F)c2c1=O`, the IP [1] is reported as 1500 nM.

`O=C(O)c1cn(Cc2ccc(C(F)(F)F)cc2)c2c(F)cccc2c1=O` gave an IP [1] of 980 nM.

`O=C(O)c1cn(Cc2cccc(C(F)(F)F)c2)c2c(F)ccc(F)c2c1=O` gave an IP [1] of 1600 nM.

In the case of `O=C(O)c1cn(Cc2ccc(OC(F)(F)F)cc2)c2c(F)ccc(F)c2c1=O`, the IP [1] is reported as 1300 nM.

For `O=C(O)c1cn(Cc2ccc(OC(F)(F)F)cc2)c2cccc(F)c2c1=O`, the IP [1] was 2800 nM.

For `O=C(O)c1cn(Cc2ccccc2)c2c(F)ccc(F)c2c1=O`, the IP [1] was 3000 nM.

In the case of `O=C(O)c1cn(Cc2ccc(OC(F)(F)F)cc2)c2ccccc2c1=O`, the IP [1] is reported as 1800 nM.

`CS(=O)(=O)c1ccc(Cn2cc(C(=O)O)c(=O)c3c(F)ccc(F)c32)cc1` gave an IP [1] of 16000 nM.

In the case of `O=C(O)c1cn(Cc2cccc(OC(F)(F)F)c2)c2ccccc2c1=O`, the IP [1] is reported as 4100 nM.

With `CNc1ccc(-c2ccc(Cn3cc(C(=O)O)c(=O)c4cccc(F)c43)cc2)cn1` the IP [1] was 48 nM.

In the case of `O=C(O)c1cn(Cc2ccc(C3CC3)cc2)c2cccc(F)c2c1=O`, the IP [1] is reported as 830 nM.

With `O=C(O)c1cn(Cc2ccc(-c3cccc(CO)n3)cc2)c2c(F)cccc2c1=O` the IP [1] was 250 nM, the fraction unbound [2] was 0.058 and the fraction unbound [3] was 0.022.

Work on `O=C(NC1CC1)c1ccc(-c2ccc(Cn3cc(C(=O)O)c(=O)c4cccc(F)c43)cc2)cc1` yielded an IP [1] of 110 nM.

For `O=C(O)c1cn(Cc2ccc(C(F)(F)F)cc2)c2c(F)ccc(F)c2c1=O`, the IP [1] was 760 nM.

`O=C(O)c1cn(Cc2c(F)cccc2F)c2c(F)cccc2c1=O` showed an IP [1] of 1000 nM.

Compound `O=C(O)c1cn(Cc2ccc(-c3ccncc3)cc2)c2c(F)cccc2c1=O` has an IP [1] of 100 nM.

Compound `O=C(O)c1cn(Cc2ccccc2C(F)(F)F)c2ccccc2c1=O` has an IP [1] of 4300 nM.

Work on `O=C(O)c1cn(Cc2ccc(-c3ccccc3)cc2Cl)c2ccccc2c1=O` yielded an IP [1] of 120 nM.

`O=C(O)c1cn(Cc2ccc(Br)cc2F)c2c(F)ccc(F)c2c1=O` showed an IP [1] of 860 nM.

In the case of `O=C(O)c1cn(Cc2ccccc2C(F)(F)F)c2c(F)ccc(F)c2c1=O`, the IP [1] is reported as 2300 nM.

`O=C(O)c1cn(Cc2ccc(-c3ccccc3)cc2)c2cccc(F)c2c1=O` gave an IP [1] of 84 nM.

In the case of `NC(=O)c1cccc(Cn2cc(C(=O)O)c(=O)c3ccccc32)c1`, the IP [1] is reported as 4300 nM.

For `O=C(O)c1cn(Cc2ccc(-c3ccccc3)cc2)c2ccccc2c1=O`, the IP [1] was 210 nM.

Work on `CS(=O)(=O)c1ccc(Cn2cc(C(=O)O)c(=O)c3cccc(F)c32)cc1` yielded an IP [1] of 13000 nM.

In the case of `O=C(O)c1cn(C2(c3ccccc3)CC2)c2c(F)cccc2c1=O`, the IP [1] is reported as 22000 nM.

For `O=C(O)c1cn(Cc2ccccc2C(F)(F)F)c2c(F)cccc2c1=O`, the IP [1] was 6900 nM.

`O=C(O)c1cn(Cc2cccc(OC(F)(F)F)c2)c2cccc(F)c2c1=O` gave an IP [1] of 5900 nM.

In the case of `O=C(O)c1cn(Cc2ccc(C3CC3)cc2)c2c(F)cccc2c1=O`, the IP [1] is reported as 1200 nM.

`COc1ccc(Cn2cc(C(=O)O)c(=O)c3c(F)cccc32)cc1` gave an IP [1] of 2000 nM.

With `CN(C)c1cccc(-c2ccc(Cn3cc(C(=O)O)c(=O)c4cccc(F)c43)cc2)c1` the IP [1] was 94 nM.

Work on `O=C(O)c1cn(Cc2ccc(-c3cccnc3)cc2)c2cccc(F)c2c1=O` yielded an IP [1] of 61 nM, a fraction unbound [2] of 0.055 and a fraction unbound [3] of 0.051. It also gave a concentration at 1 h [4] of 24 nM.

`CS(=O)(=O)c1ccc(Cn2cc(C(=O)O)c(=O)c3ccccc32)cc1` showed an IP [1] of 18000 nM.

`O=C(O)c1cn(Cc2ccc(Br)cc2F)c2c(F)cccc2c1=O` gave an IP [1] of 1200 nM.

`O=C(O)c1cn(Cc2cccc(OC(F)(F)F)c2)c2c(F)ccc(F)c2c1=O` showed an IP [1] of 3200 nM.

Compound `O=C(O)c1cn(Cc2cccc(C(F)(F)F)c2)c2c(F)cccc2c1=O` has an IP [1] of 2700 nM.

For `COc1cccc(Cn2cc(C(=O)O)c(=O)c3ccccc32)c1`, the IP [1] was 2800 nM.

With `O=C(O)c1cn(Cc2ccccc2)c2ccccc2c1=O` the IP [1] was 1700 nM.

`COc1cccc(Cn2cc(C(=O)O)c(=O)c3cccc(F)c32)c1` showed an IP [1] of 2700 nM.

`CN(C)Cc1cccc(-c2ccc(Cn3cc(C(=O)O)c(=O)c4cccc(F)c43)cc2)c1` gave an IP [1] of 220 nM.

In the case of `O=C(O)c1cn(Cc2ccc(-c3cn[nH]c3)cc2F)c2cccc(F)c2c1=O`, the IP [1] is reported as 41 nM, the fraction unbound [2] is reported as 0.044 and the fraction unbound [3] is reported as 0.02.

With `O=C(O)c1cn(Cc2ccc(-c3ccccc3)cc2F)c2ccccc2c1=O` the IP [1] was 50 nM.

In the case of `O=C(O)c1cn(Cc2ccc(-c3cccc4cccnc34)cc2)c2cccc(F)c2c1=O`, the IP [1] is reported as 190 nM and the fraction unbound [3] is reported as 0.015.

`COc1ncc(-c2ccc(Cn3cc(C(=O)O)c(=O)c4ccccc43)c(F)c2)cn1` gave an IP [1] of 510 nM.

Work on `Nc1ccc(-c2ccc(Cn3cc(C(=O)O)c(=O)c4cccc(F)c43)cc2)cn1` yielded an IP [1] of 130 nM.

Compound `Nc1cccc(-c2ccc(Cn3cc(C(=O)O)c(=O)c4cccc(F)c43)cc2)c1` has an IP [1] of 210 nM.

Compound `O=C(O)c1cn(CCc2ccccc2)c2ccccc2c1=O` has an IP [1] greater than 100000 nM.

Compound `O=C(O)c1cn(Cc2ccccc2)c2c(F)cccc2c1=O` has an IP [1] of 4000 nM.

Compound `O=C(O)c1cn(Cc2c(F)cccc2F)c2cccc(F)c2c1=O` has an IP [1] of 1300 nM.

With `O=C(O)c1cn(Cc2cccc(OC(F)(F)F)c2)c2c(F)cccc2c1=O` the IP [1] was 3600 nM.

With `O=C(O)c1cn(Cc2ccc(OC(F)(F)F)cc2)c2c(F)cccc2c1=O` the IP [1] was 2100 nM.

`CN1CCN(c2ccc(-c3ccc(Cn4cc(C(=O)O)c(=O)c5cccc(F)c54)cc3)cn2)CC1` gave an IP [1] of 51 nM.

In the case of `COc1cccc(Cn2cc(C(=O)O)c(=O)c3c(F)cccc32)c1`, the IP [1] is reported as 2100 nM.

With `O=C(O)c1cn(Cc2ccc(-c3cccc4[nH]ccc34)cc2)c2c(F)cccc2c1=O` the IP [1] was 76 nM.
